Data as given in US20230321189A1, “THERAPEUTIC AGENTS, PHARMACEUTICAL COMPOSITIONS, AND ASSOCIATED BIOMARKERS BASED ON TRK-B” (INSTITUTO DE MEDICINA MOLECULAR JOÃO LOBO ANTUNES, priority 2020, published 2023).

How the values were obtained:
hippocampal slices = assay: θ-burst Long-Term Potentiation (LTP) in acute hippocampal slices; type: cell-based, rat
Source text: Young adult (7-10 weeks old) male Wistar rats were sacrificed by decapitation under deep isoflurane anaesthesia. The brain was quickly removed, hemisected and both hippocampi were dissected free within ice-cold artificial cerebrospinal fluid (aCSF) (mM: NaCl 124; KCl 3; NaH2PO4 1.25; NaHCO326; MgSO4 1; CaCl2 2; and glucose 10), previously gassed with 95% O2 and 5% CO2, pH 7.4.
Slices (400 μm-thick) were cut perpendicularly to the long axis of the hippocampus with a McIlwain tissue chopper and allowed to recover for at least 60 min in a resting chamber, filled with the gassed aCSF, at room temperature (RT) (22-24° C.).
Hippocampal slices were incubated with vehicle or Aβ1-42 (200 nM) species (monomers, oligomers or fibrils) for 3 h at RT in gassed aCSF. We chose to perform slice incubation at RT, to avoid neuronal damage by hypoxic injury^27.
Slices were transferred to a submerging chamber (1 ml) and continuously superfused at a3 ml/min rate with gassed aCSF at 32° C. Perfusion tubes were coated with 0.1 mg/ml BSA prior to experiments to avoid adsorption of BDNF to the tubes^35. Evoked field excitatory postsynaptic potentials (fEPSP) were recorded extracellularly through a microelectrode filled with 4 M NaCl (2-8 MΩ resistance) placed in the stratum radiatum of the CA1 area, as previously described^34,35. One pathway of the Schaffer collateral/commissural fibers was stimulated (rectangular pulses of 0.1 ms duration) at every 15 s (for V/O curves, basal synaptic transmission and Paired-Pulse Facilitation (PPF) recordings) or every 20 s (for LTP recordings), by a bipolar concentric wire electrode placed on the Schaffer fibers in the stratum radiatum, in the CA1 area. The initial intensity of the stimulus was adjusted to obtain a submaximal fEPSP slope with a minimum population spike contamination, near one-fifth of the fEPSP slope obtained with supramaximal stimulation. The averages of eight consecutive fEPSPs were obtained and the slope of the initial phase of the potential was quantified. Recordings were obtained with an Axoclamp 2B amplifier (Axon Instruments, Foster City, CA), digitized and continuously stored on a personal computer with the LTP program 3. All the protocols detailed below were started only after a stable baseline of at least 20 minutes.
Long-Term Potentiation induction and saturation. A weak LTP-inducing θ-burst protocol consisting of four trains of 100 Hz, four stimuli, separated by 200 ms was used (4×4)^34,37. The intensity of the stimulus was never changed. LTP magnitude was quantified as the normalized change in the average slope of the fEPSP taken from 50 to 60 min after LTP induction in relation to the average slope of the fEPSP measured during the 10 min that preceded the induction of LTP.
For the experiments in FIG. 2, Brain-Derived Neurotrophic Factor (BDNF, 30 ng/ml) was added to the superfusing solution 20 min before the induction of LTP. Controls for these experiments were performed in different slices, without BDNF superfusion, on the same day. Generally, when testing BDNF effect on synaptic plasticity, two independent pathways of the same hippocampal slice are used, one serving as test and the other as internal control^35,38. However, because in the present experimental design slices were previously exposed to vehicle/Aβ for 3 h, we chose to test BDNF effect in different slices from the same rats. […]

hippocampal synaptosomes = assay: [3H]glutamate release from hippocampal synaptosomes; type: cell-based, rat; details: BDNF 30 ng/ml
Description: Isolation of Synaptosomes. The synaptosomal fraction from rat hippocampi was prepared as routinely in the lab^3. Hippocampal slices (male Wistar rats, 7-10 weeks old) were prepared and treated with vehicle or Aβ1-42, as described above. Then, slices were added to 5 ml of ice-cold isosmotic sucrose solution (0.32 M, containing 1 mM EDTA, 1 mg/ml BSA, 10 mM HEPES, pH 7.4), and homogenized in a Potter-Elvehjem homogenizer with a Teflon piston (four up-and-down strokes) and the volume completed to 10 ml with the sucrose solution. After a first centrifugation at 3,000 g for 10 min (Heraeus sepatech—Biofuge 28RS centrifuge with 3746 rotor), the supernatant was collected and centrifuged at 14,000 g for 12 min. The whole procedure was conducted at 4° C. The pellet was resuspended in 1 ml 45% Percoll in KHR solution consisting of (in mM) NaCl 140, EDTA 1, HEPES 10, KCl 5, and glucose 5, and centrifuged at 16,000 g for 2 min. The synaptosomal fraction corresponds to the top buoyant layer and was collected from the tube. Percoll was removed by two washes with 1 ml KHR solution centrifuged at 16,000 g for 2 min each; synaptosomes were then kept on ice and used within 3 hours. The synaptosomal protein concentration was assayed using the Bio-Rad DC™ protein assay and BSA as standard.
[^3H]Glutamate Release from Hippocampal Synaptosomes. [3H]Glutamate release from hippocampal synaptosomes was performed as routinely in the lab^39. […]
Calculation of drug effects on glutamate release. At the end of each experiment, aliquots (500 μl) of each sample as well as the filters from each superfusion chamber were analyzed by liquid scintillation counting. The fractional release was expressed as the percentage of total radioactivity present in the synaptosomes at each time point. The amount of radioactivity released by each pulse of K^+ (S1 and S2) was calculated by integration of the area of the peak upon subtraction of the estimated basal tritium release. […]

In the case of “TrkB-Fc: recombinant human TrkB/Fc chimera, BDNF's scavenger [reference compound]”, the “effect on LTP in slices exposed to Aβ oligomers and TAT-TrkB” value (hippocampal slices; TrkB-Fc 2 μg/ml superfused from 30 min before LTP induction, TAT-TrkB 20 μM, P<0.05) is reported as “counteracts the effect of TAT-TrkB on LTP reestablishment”.

In the case of “BDNF: Brain-derived Neurotrophic Factor, supplied by Regeneron Pharmaceuticals”, the “BDNF effect on glutamate release after Aβ1-42 monomeric or fibrillar species” value (hippocampal synaptosomes; Aβ 200 nM monomers or fibrils, P<0.05) is reported as “preserved”, the “BDNF effect on glutamate release after Aβ1-42 oligomeric species” value (hippocampal synaptosomes; Aβ 200 nM oligomers, P>0.05) is reported as “impaired” and the “glutamate release, control conditions” value (hippocampal synaptosomes; P<0.01) is reported as “boosted”. The “LTP magnitude, control conditions” value (hippocampal slices; BDNF 30 ng/ml) was “boosted”, the “BDNF effect on LTP after Aβ1-42 monomeric or fibrillar species” value (hippocampal slices; BDNF 30 ng/ml, Aβ 200 nM monomers or fibrils, P<0.05) was “preserved” and the “BDNF effect on LTP after Aβ1-42 oligomeric species” value (hippocampal slices; BDNF 30 ng/ml, Aβ 200 nM oligomers, P>0.05) was “impaired”. For the same substance, the “effect of exogenous BDNF on LTP in slices exposed to TAT-TrkB and Aβ oligomers” value (hippocampal slices; BDNF 30 ng/ml, TAT-TrkB 20 μM, Aβ 200 nM, P>0.05) was “did not boost LTP further”.
